Measured values reported in patent US9649268B2, “Glucuronolactone derivatives as self-tanning substances” (MERCK PATENT GMBH, priority 2011, dated 2017).

What was measured:
[1] = system: histological explants from the lower abdomen tissue of a person; assay: Ex-vivo study on skin explants, chromametric measurement (ITA); design: species or system human; conditions: for Day 5 (ITA value): 30 μl on 5 consecutive days, 2 h
Procedure: 24 histological explants having an average diameter of 10 mm are prepared from the lower abdomen tissue of a person. The pieces of tissue are kept in BEM medium (BIO-EC's explants medium) at 37° C. in a humid atmosphere comprising 5% of CO2.
The tissue is divided into 8 batches of 3 explants each:
30 μl of the substance solutions are applied on 5 consecutive days using a round filter paper and left to act for 2 h. On days 0, 5 and 8, tissue sections with a thickness of 5 μm are prepared from the explants. These sections are investigated morphologically and measured chromametrically.
The colour measurements are carried out using a Minolta CR-300 Chroma-meter, and the L, a and b values are read off correspondingly on the instrument.
Principle of the Chromametric Measurement:
The following parameters are set:
In 1931, a test series was carried out by the CIE (Commision Internationale de L'Eclairage), where the “2-degree standard observer” was defined. A colour area is present here which is viewed at a viewing angle of 2 degrees. This viewing angle is used as standard in the chromametric measurement. • Irradiation source D65, corresponding to daylight • Region of the measurement: 3 mm • Parameters used: L* a* b*
The sample is placed on the bearing rail with the epidermis facing downwards. The irradiation is carried out from the underside through the area indicated (3 mm).
In the colorimetric determinations <<L a b>>, the L value determines the contrast of the skin. If the L value drops, the skin appears darker.
ITA is defined as arctan g[(L−50)/b]. If the ITA index increases, the skin appears paler.

[2] = Colouring test on merino wool balls; conditions: 1 mmol in 100 ml buffer (pH 7)/ethylene glycol 6/94, RT, 24 h, then washed and dried
Procedure: 1 mmol of each of DHA and the glucuronolactone derivatives are weighed out into a 100 ml conical flask with ground-glass joint:
(2) Glucuronolactone: 176 mg
(3) Compound (Ia): 216 mg
(4) Compound (Ic): 264 mg
A merino wool ball with the size of a grape and a magnetic stirrer are then added to each conical flask.
A mixture of 6% by vol. of buffer (ph7) and 94% by vol. of ethylene glycol is then prepared, 100 ml of this mixture are added to each conical flask and stirred at RT for 24 h.
After 24 h, the wool balls are washed firstly with water, then with warm washing-powder solution and again with water and dried.
This colouring result can also be applied to hair, since merino wool, like hair, is built up from proteins (keratins) and the outermost layer is in each case the cuticle.

[3] = Liquid skin model (reaction with L-lysine, L*a*b* values); conditions: after 24 hours; for L* / a* / b*: 1 mmol compound + 1 mmol L-lysine, phosphate-buffered water (pH=7)/ethylene glycol
Procedure: The mixture is subsequently made up to the mark with a mixture of 6 ml of phosphate-buffered water (pH=7) and 94 ml of ethylene glycol. The reaction is observed with vigorous stirring, and the L*a*b* values are determined after 24 hours.

[4] = Stability/odour of test formulations on storage; format: physicochemical; conditions: formulation with 5% active compound (mixture: 5% DHA + 1% compound Ia), stored at 40° C. for 8 weeks
Procedure: In order to compare the odour and stability of glucuronolactone, glucuronolactone acetonide of the formula (Ia), DHA and a combination in a formulation, 5 formulations are prepared: one without active compound as placebo, one with 5% of glucuronolactone, one with 5% of compound (Ia), one with 5% of DHA and one with 5% of DHA+1% of compound (Ia) (denoted by “active compound” in the recipe).
The following recipe is used:
Sources of Supply: (1) Sasol Germany GmbH, (2) Cognis GmbH, (3) Hansen&Rosenthal KG, (4) Merck KGaA/Rona®, (5) Alfa Aesar Preparation of the Formulations: […]
Heat phase A, heat phase B, prepare phase C on a magnetic stirrer (first introduce water, then add thickener), then homogenise phase C with phase B using an Ultra-Turrax and at the same time slowly add phase A. Subsequently add phase D and likewise homogenise well.
In the case of the 5th cream (with DHA and glucuronolactone acetonide), adjust the water proportion correspondingly.

CC1(C)OC2OC3C(O)C(=O)OC3C2O1 (stereo not shown) [Compound Ia, glucuronolactone acetonide]
Day 5 (ITA value) ([1]; 1% solution): −2%
Day 5 (ITA value) ([1]; 4% solution): −5%
colour effect ([1]; identical concentration in the test formulation): comparable to erythrulose
colouration of wool samples compared with the untreated sample [2]: yellow colouration
L* [3]: 82.6
a* [3]: 29.4
b* [3]: 103.7
L values compared with erythrulose (darker colour) [3]: lower L values than erythrulose
odour of the formulation [4]: produce no odour

COC1OC2C(O)C(=O)OC2C1O (stereo not shown) [Compound Ib]
L* [3]: 81.1
a* [3]: 30.8
b* [3]: 103.8
L values compared with erythrulose (darker colour) [3]: lower L values than erythrulose

O=C1OC2C3OC(c4ccccc4)OC3OC2C1O [Compound Ic, 1,2-O—(R,S)-(Benzylidene)-α-D-glucofuranurono-6,3-lactone]
colouration of wool samples compared with the untreated sample [2]: yellow colouration
L* [3]: 68.0
a* [3]: 55.2
b* [3]: 109.6
L values compared with erythrulose (darker colour) [3]: lower L values than erythrulose

COc1ccc(C2OC3OC4C(O)C(=O)OC4C3O2)cc1 [Compound Ie, 1,2-O—(R,S)-(4-Methoxybenzylidene)-α-D-glucofuranurono-6,3-lactone]
L* [3]: 76.4
a* [3]: 39.1
b* [3]: 106.7
L values compared with erythrulose (darker colour) [3]: lower L values than erythrulose

COc1cc(C2OC3OC4C(O)C(=O)OC4C3O2)ccc1O [Compound Ig, 1,2-O—(R,S)-(4-hydroxy-3-methoxybenzylidene)-α-D-glucofuranurono-6,3-lactone]
L* [3]: 80.9
a* [3]: 32.0
b* [3]: 100.0
L values compared with erythrulose (darker colour) [3]: lower L values than erythrulose
melting point: 82 °C

O=C(CO)CO [DHA, 1,3-dihydroxyacetone, reference compound]
Day 5 (ITA value) ([1]; 1% solution): −15%
colouration of wool samples compared with the untreated sample [2]: no colouration
L* [3]: 46.7
a* [3]: 27.2
b* [3]: 69.4
odour of the formulation [4]: developed the typical DHA odour

O=C(CO)[C@H](O)CO [Erythrulose, reference compound]
Day 5 (ITA value) ([1]; 4% solution): −5%
L* [3]: 92.6
a* [3]: 4.8
b* [3]: 35.8

O=C[C@H](O)[C@H]1OC(=O)[C@@H](O)[C@H]1O [Glucuronolactone]
Day 5 (ITA value) ([1]; 1% solution): −3%
colouration of wool samples compared with the untreated sample [2]: no colouration
L* [3]: 96.1
a* [3]: 4.3
b* [3]: 45.9
odour of the formulation [4]: produce no odour
